Values quoted from earlier work in patent US20140161876A1, “LIPOSOME-CONTAINING PREPARATION UTILIZING DISSOLUTION AID, AND METHOD FOR PRODUCING SAME” (KONICA MINOLTA, INC., priority 2011, published 2014).
Converted amounts (≈) assume the structure as drawn.

Conditions: drug encapsulated, Tables 3 and 4

Row | Compound | Solubility in water [mg/mL]
1 | COc1cc([C@@H]2c3cc4c(cc3[C@@H](O[C@@H]3O[C@@H]5CO[C@@H](C)O[C@H]5[C@H](O)[C@H]3O)[C@H]3COC(=O)[C@H]23)OCO4)cc(OC)c1O [etoposide] | 0.5 (≈ 0.85 mM)
2 | Nc1nc(=O)c2c([nH]1)NC[C@H](CNc1ccc(C(=O)N[C@@H](CCC(=O)O)C(=O)O)cc1)N2C=O [levofolinate] | 20 (≈ 42.2 mM)
